Experimental findings from US10925858B2, “S-nitrosoglutathione (GSNO) and GSNO reductase inhibitors for use in therapy” (MUSC FOUNDATION FOR RESEARCH DEVELOPMENT, priority 2017, dated 2021) are described below.

In one assay the test system is myosin light chain (MLC). Put plainly: Western analysis of MLC phosphorylation (Ser19) in thrombin treated hBMVECs. In kind it is cell-based, human. The note with it: thrombin 0.1 unit/ml 5 min; L-NIO or FeTPPS 10 μM; GSNO or SIN-1 various concentrations. The protocol:
Cell culture: Primary human brain microvascular endothelial cells (hBMVECs) were purchased from Angio-Proteomie (Cat #: cAP-0002, Atlanta, Ga.). The cells were cultured in cell culture flasks or plates precoated with Quick Coating Solution (Angio-Proteomie; Cat #: cAP-01) and maintained in Endothelial Growth Medium (Angio-Proteomie; Cat #: cAP-02) at 37° C. under 5% CO2/95% air. When the cells were almost confluent, the medium was replaced with endothelial basal medium (Angio-Proteomie; Cat #: cAP-03) containing 0.5% fetal bovine serum (FBS; Life Technologies, Grand Island, N.Y.) about 8-12 hours before the experiment. No institutional approval was required for this study. The study was not pre-registered.
(§1) Western immunoblot analysis was performed by standard method using 50 μg of cell lysates. Following the SDS-PAGE electrophoresis, proteins were transferred from the gel onto the Polyvinylidene fluoride membrane (GE Healthcare Life Sciences, Marlborough, Mass.). Membranes were blocked with non-fat dry milk (Santa Cruz Biotechnology) or I-Block™ (ThermoFisher Scientific, Waltham, Mass.) for detection of phospho-proteins and incubated with primary antibodies, such as MBP (Santa Cruz Biotech Cat #: sc13914; RRID: AB_648798), phospho-(Ser^19) MLC (Abeam, Cat #: ab2480; RRID: AB_303094), MLC (Abeam, Cat #: ab79935; RRID:AB_1952220), P-actin (Santa Cruz Biotechnology, Cat #: sc-47778; RRID:AB_2714189), phospho-eNOS (Ser^1177) (Cell Signaling, Cat #: 9571; RRID: AB_329837, Danvers, Mass.), eNOS (Cell Signaling, Cat #: 32027), RhoA (Santa Cruz Biotechnology; Cat #: sc418; RRID: AB_628218) or 3-nitrotyrosine (Abeam, Cat #: ab61392; RRID: AB_942087). Following washing, the membranes were incubated with horseradish peroxidase conjugated secondary antibody (Jackson Immunoresearch Lab, West Grove, Pa.), washed and then incubated with ECL reagent (Amersham Life Science, Pittsbrugh, Pa.), and exposed to Amersham Hyperfilm ECL film

A short description of assay [1]: Edema (brain water content) in CCI rat model of TBI. The format is in vivo, Sprague Dawley rats. Conditions: 24 hr after TBI; GSNO 0.05 mg/kg i.v. or FeTPPS 3 mg/kg i.v. The source says:
All animals used in this study received humane care in compliance with the Medical University of South Carolina's (MUSC) guidance and the National Research Council's criteria for humane care. Animal procedures were approved by the institutional animal care and use committee of MUSC (AR #2703). For generation of CCI model of TBI, young adult male (˜3-4 months old) Sprague Dawley rats weighing between 260-300 g were randomly divided into four groups: 1) TBI animals treated with vehicle (TBI; n=13), 2) TBI with GSNO (0.05 mg/kg body weight/i.v.) treatment (TBI+GSNO; n=13), 3) TBI with FeTPPS (3 mg/kg body weight, i.v.) treatment (TBI+FeTPPS; n=13), 4) sham-operated treated with vehicle (Sham; n=13). The group size was determined by power analysis based on our previous data (Khan et al., 2016b; Khan et al., 2009). Ketamine (90 mg/kg body weight) and xylazine (10 mg/kg body weight) as surgical anesthesia were administered intraperitoneally. Analgesic buprenorphine was administered pre-emptively to alleviate pain following surgery. […]
At 24 h following CCI, animals were euthanized to determine brain water content (edema) as described earlier (Hoda et al., 2009; Khan et al., 2009). […] Each hemisphere was dried at 60° C. for 72 hours, and the dry weight was determined. Water content was calculated in ipsilateral hemisphere as: water content (%)=(wet weight−dry weight)/wet weight×100.

For a further assay, the system named is 3-nitrotyrosine. Put plainly: Western analysis of 3-nitrotyrosine in rat brains with TBI. In kind it is in vivo, Sprague Dawley rats. Conditions: 24 hr after TBI, traumatic penumbra; GSNO 0.05 mg/kg i.v. or FeTPPS 3 mg/kg i.v. The protocol:
as §1, with “Following washing, the membranes were incubated with horseradish peroxidase conjugated secondary antibody (Jackson Immunoresearch Lab, West Grove, Pa.), washed and then incubated with ECL reagent (Amersham Life Science, Pittsbrugh, Pa.), and exposed to Amersham Hyperfilm ECL film” left out
All animals used in this study received humane care in compliance with the Medical University of South Carolina's (MUSC) guidance and the National Research Council's criteria for humane care. […] The group size was determined by power analysis based on our previous data (Khan et al., 2016b; Khan et al., 2009). […]

The structures appear in SMILES notation.

As to `Cl.O=S(=O)([O-])c1ccc(-c2c3nc(c(-c4ccc(S(=O)(=O)O)cc4)c4ccc([nH]4)c(-c4ccc(S(=O)(=O)O)cc4)c4nc(c(-c5ccc(S(=O)(=O)O)cc5)c5ccc2[nH]5)C=C4)C=C3)cc1.[Fe]` [FeTPPS, 5,10,15,20-Tetrakis(4-sulfonatophenyl)porphyrinato Iron (III), Cl, reference compound], the “thrombin-induced MLC phosphorylation” value in the assay on myosin light chain (MLC) is “inhibited”. Also, the “TBI-induced increase in brain water content” value in assay [1] was “reduced”. The “brain levels of 3-nitrotyrosine” value with 3-nitrotyrosine is recorded as “reduced”.
On to `N[C@@H](CCC(=O)N[C@@H](CSN=O)C(=O)NCC(=O)O)C(=O)O` [GSNO, S-nitrosoglutathione], for which the “thrombin-induced MLC phosphorylation” value in the assay with myosin light chain (MLC) is recorded as “attenuated”. The “TBI-induced increase in brain water content” value in assay [1] is “reduced”. Besides, the “brain levels of 3-nitrotyrosine” value in the assay with 3-nitrotyrosine is “reduced”.
